# Laboratory results taken from ChEMBL document CHEMBL1201862, “PubChem BioAssay data set” (2004).
#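 Five concentrations, 48 hours, 96-well plates. Abbreviation: GI50, concentration required for 50% inhibition of growth.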 Activity calls are given as the source filed them. Rule as the data show it: active = GI50 up to about 1.1 µM and inactive = higher.
# Legend:
# Test in all cases: NCI anticancer screen, dose series, 48 h
# A549 = system: A549
# ACHN = system: ACHN
# COLO 205 = system: COLO 205
# EKVX = system: EKVX
# HOP-62 = system: HOP-62
# IGROV-1 = system: IGROV-1
# KM12 = system: KM12
# NCI-H460 = system: NCI-H460
# NCI-H522 = system: NCI-H522
# OVCAR-5 = system: OVCAR-5
# RPMI-8226 = system: RPMI-8226
# SF-268 = system: SF-268
# SK-MEL-5 = system: SK-MEL-5
# SK-OV-3 = system: SK-OV-3
# U-251 = system: U-251
# UACC-257 = system: UACC-257
# UO-31 = system: UO-31
# MOLT-4 = system: MOLT-4
# MDA-MB-435 = system: MDA-MB-435
# MDA-MB-231 = system: MDA-MB-231
SMILES,GI50 (A549),GI50 (ACHN),GI50 (COLO 205),GI50 (EKVX),GI50 (HOP-62),GI50 (IGROV-1),GI50 (KM12),GI50 (NCI-H460),GI50 (NCI-H522),GI50 (OVCAR-5),GI50 (RPMI-8226),GI50 (SF-268),GI50 (SK-MEL-5),GI50 (SK-OV-3),GI50 (U-251),GI50 (UACC-257),GI50 (UO-31),GI50 (MOLT-4),GI50 (MDA-MB-435),GI50 (MDA-MB-231)
CCOC(=O)C1=C(C)N2CCOC2(C)C(C(=O)OC)C1c1cccc(Cl)c1 (configuration not stated),> 100 µM (inactive),> 100 µM (inactive),> 100 µM (inactive),> 100 µM (inactive),> 100 µM (inactive),> 100 µM (inactive),> 100 µM (inactive),> 100 µM (inactive),88.7 µM (inactive),> 100 µM (inactive),> 100 µM (inactive),> 100 µM (inactive),> 100 µM (inactive),> 100 µM (inactive),> 100 µM (inactive),> 100 µM (inactive),> 100 µM (inactive),–,–,–
N/C(=N\O)N/N=C/c1cccc(F)c1,31.7 µM (inactive),27.7 µM (inactive),36.3 µM (inactive),37.1 µM (inactive),26.9 µM (inactive),47.9 µM (inactive),34.1 µM (inactive),26.4 µM (inactive),29.5 µM (inactive),33.7 µM (inactive),39 µM (inactive),21.6 µM (inactive),14.8 µM (inactive),55.7 µM (inactive),36.1 µM (inactive),52.4 µM (inactive),28.3 µM (inactive),43.5 µM (inactive),–,–
CCCCCCCCCCCCCCCCc1c(O)nc(NN)nc1C(=O)OC,> 50 µM (inactive),> 50 µM (inactive),> 50 µM (inactive),> 50 µM (inactive),> 50 µM (inactive),> 50 µM (inactive),> 50 µM (inactive),> 50 µM (inactive),> 50 µM (inactive),> 50 µM (inactive),> 50 µM (inactive),> 50 µM (inactive),> 50 µM (inactive),> 50 µM (inactive),> 50 µM (inactive),> 50 µM (inactive),> 50 µM (inactive),> 50 µM (inactive),–,–
CC1(C)CN=C(Nc2ccc(F)c(Cl)c2)S1,> 100 µM (inactive),> 100 µM (inactive),> 100 µM (inactive),> 100 µM (inactive),> 100 µM (inactive),> 100 µM (inactive),> 100 µM (inactive),–,> 100 µM (inactive),> 100 µM (inactive),> 100 µM (inactive),> 100 µM (inactive),> 100 µM (inactive),> 100 µM (inactive),> 100 µM (inactive),> 100 µM (inactive),> 100 µM (inactive),> 100 µM (inactive),> 100 µM (inactive),–
COC1C=CC(C(=O)[N+]2=Cc3[nH]c4ccccc4c3CC2)O1 (configuration not stated),> 100 µM (inactive),97.9 µM (inactive),> 100 µM (inactive),88.5 µM (inactive),> 100 µM (inactive),> 100 µM (inactive),> 100 µM (inactive),69.3 µM (inactive),34.9 µM (inactive),> 100 µM (inactive),71.1 µM (inactive),> 100 µM (inactive),> 100 µM (inactive),52.5 µM (inactive),37.9 µM (inactive),> 100 µM (inactive),> 100 µM (inactive),34.9 µM (inactive),–,–
Cc1cc(Br)ccc1/N=N/c1c(C)nn(-c2ccccc2)c1-c1ccccc1,81.8 µM (inactive),54.7 µM (inactive),> 100 µM (inactive),> 100 µM (inactive),> 100 µM (inactive),93.5 µM (inactive),57 µM (inactive),45.8 µM (inactive),51.6 µM (inactive),53.7 µM (inactive),> 100 µM (inactive),> 100 µM (inactive),29 µM (inactive),> 100 µM (inactive),27 µM (inactive),49.3 µM (inactive),> 100 µM (inactive),> 100 µM (inactive),–,–
CCOC(=O)C1=C(C)NC(c2ccccc2)=C(C(=O)OCc2ccccc2)C1C#Cc1ccccc1 (configuration not stated),–,–,> 100 µM (inactive),> 100 µM (inactive),> 100 µM (inactive),79.8 µM (inactive),> 100 µM (inactive),–,–,> 100 µM (inactive),> 100 µM (inactive),> 100 µM (inactive),> 100 µM (inactive),> 100 µM (inactive),> 100 µM (inactive),> 100 µM (inactive),58.2 µM (inactive),> 100 µM (inactive),> 100 µM (inactive),–
COc1ccc2c(c1OC)C(C=C(c1ccccc1)c1ccccc1)CN(C)C2 (configuration not stated),30 µM (inactive),24.4 µM (inactive),14.5 µM (inactive),35.3 µM (inactive),20.6 µM (inactive),14.8 µM (inactive),18.9 µM (inactive),11.7 µM (inactive),17.2 µM (inactive),6.79 µM (inactive),18.2 µM (inactive),27.1 µM (inactive),15.8 µM (inactive),27.4 µM (inactive),20 µM (inactive),21.8 µM (inactive),20 µM (inactive),31.6 µM (inactive),–,–
NNC(=O)/C(=C/c1cccc([N+](=O)[O-])c1)NC(=O)c1ccccc1,> 100 µM (inactive),> 100 µM (inactive),> 100 µM (inactive),< 0.01 µM (active),> 100 µM (inactive),> 100 µM (inactive),> 100 µM (inactive),> 100 µM (inactive),> 100 µM (inactive),77.3 µM (inactive),> 100 µM (inactive),> 100 µM (inactive),> 100 µM (inactive),> 100 µM (inactive),> 100 µM (inactive),> 100 µM (inactive),> 100 µM (inactive),> 100 µM (inactive),–,–
Nc1nc(O)c2nc(N)n(Cc3ccccc3)c2n1,> 100 µM (inactive),> 100 µM (inactive),> 100 µM (inactive),> 100 µM (inactive),> 100 µM (inactive),> 100 µM (inactive),> 100 µM (inactive),> 100 µM (inactive),> 100 µM (inactive),> 100 µM (inactive),> 100 µM (inactive),> 100 µM (inactive),> 100 µM (inactive),> 100 µM (inactive),> 100 µM (inactive),> 100 µM (inactive),> 100 µM (inactive),> 100 µM (inactive),–,–
CC(=O)NNC(=S)N/C=C1/C(=O)C=C(C)OC1=O,> 100 µM (inactive),> 100 µM (inactive),> 100 µM (inactive),> 100 µM (inactive),> 100 µM (inactive),> 100 µM (inactive),> 100 µM (inactive),> 100 µM (inactive),–,> 100 µM (inactive),–,–,> 100 µM (inactive),> 100 µM (inactive),> 100 µM (inactive),> 100 µM (inactive),> 100 µM (inactive),> 100 µM (inactive),> 100 µM (inactive),> 100 µM (inactive)
CCOC(=O)C1=C(C)N(NC(=O)Nc2ccccc2)C2(N)N(NC(=O)Nc3ccccc3)C(C)=C(C(=O)OCC)C12C(=O)OCC (configuration not stated),38.3 µM (inactive),56.4 µM (inactive),1.85 µM (inactive),> 100 µM (inactive),28.6 µM (inactive),> 100 µM (inactive),> 100 µM (inactive),37.9 µM (inactive),70 µM (inactive),> 100 µM (inactive),> 100 µM (inactive),24.8 µM (inactive),35.1 µM (inactive),29.9 µM (inactive),33 µM (inactive),67.3 µM (inactive),61.7 µM (inactive),–,–,–
Cc1ccc(-c2cc(-c3ccccc3)c(C#N)c(=O)[nH]2)cc1,> 100 µM (inactive),> 100 µM (inactive),> 100 µM (inactive),> 100 µM (inactive),> 100 µM (inactive),> 100 µM (inactive),> 100 µM (inactive),> 100 µM (inactive),> 100 µM (inactive),> 100 µM (inactive),> 100 µM (inactive),> 100 µM (inactive),> 100 µM (inactive),> 100 µM (inactive),> 100 µM (inactive),> 100 µM (inactive),> 100 µM (inactive),> 100 µM (inactive),–,–
O=C(O)C[C@H]1CCCCC12CCOC2=O (some centres not stated),> 100 µM (inactive),> 100 µM (inactive),> 100 µM (inactive),> 100 µM (inactive),> 100 µM (inactive),> 100 µM (inactive),> 100 µM (inactive),> 100 µM (inactive),> 100 µM (inactive),> 100 µM (inactive),> 100 µM (inactive),> 100 µM (inactive),> 100 µM (inactive),> 100 µM (inactive),> 100 µM (inactive),> 100 µM (inactive),> 100 µM (inactive),> 100 µM (inactive),–,–
CCOC(=O)/C(C#N)=C(O)/C(=C/c1ccccc1Cl)NC(=O)c1ccccc1,> 100 µM (inactive),> 100 µM (inactive),> 100 µM (inactive),> 100 µM (inactive),> 100 µM (inactive),> 100 µM (inactive),> 100 µM (inactive),> 100 µM (inactive),0.0195 µM (active),> 100 µM (inactive),26.6 µM (inactive),> 100 µM (inactive),> 100 µM (inactive),> 100 µM (inactive),> 100 µM (inactive),> 100 µM (inactive),> 100 µM (inactive),> 100 µM (inactive),–,–
CC(C)c1cccc(=O)c(O)c1,2.83 µM (inactive),1.87 µM (inactive),1.37 µM (inactive),5.78 µM (inactive),5.3 µM (inactive),7.8 µM (inactive),8.34 µM (inactive),2.27 µM (inactive),1.39 µM (inactive),9.73 µM (inactive),2.14 µM (inactive),1.38 µM (inactive),2.1 µM (inactive),15.8 µM (inactive),0.411 µM (active),1.66 µM (inactive),3.94 µM (inactive),1.02 µM (active),–,–
